Values of other authors, collected in patent US6846837B2, “Topical administration of basic antifungal compositions to treat fungal infections of the nails” (priority 2002, dated 2005).
One block for each compound: values may come before it.

Assays:
[1] = forms Ca(OH)2
onychomycosis = settings: standard oral treatment
[2] = not given; remark: listed apart in the source

SMILES: CN(C)C [Trimethylamine]
- pKa: 9.81

SMILES: [O]=[Ca] [Calcium oxide]
- solubility in water [1]: Soluble in water, Form Ca(OH)2

- pKa: pKa = 10.6
SMILES: CC(C)CCN [Isopentylamine]

SMILES: CN(C/C=C/C#CC(C)(C)C)Cc1cccc2ccccc12 [terbinafine]
- disease-free nails, share of cases (onychomycosis): 35-50%

- pH of Aqueous Solution, in words (alkalinity) [2]: Aqueous solution is slightly alkaline
SMILES: O=P([O-])([O-])O.[K+].[K+] [Potassium phosphate, dibasic]

- pH of Aqueous Solution, in words (alkalinity) [2]: Strongly alkaline
SMILES: O=B[O-].[Na+] [Sodium metaborate]

SMILES: CNC [Dimethylamine]
- pKa: 10.73
